Reference: publication PMC7195640, “New Synthetic 3-Benzoyl-5-Hydroxy-2H-Chromen-2-One (LM-031) Inhibits Polyglutamine Aggregation and Promotes Neurite Outgrowth through Enhancement of CREB, NRF2, and Reduction of AMPKα in SCA17 Cell Models” (Oxidative Medicine and Cellular Longevity, 2020)

How the values were obtained:
[1] = system: TBP/Q79-GFP-expressing SH-SY5Y cells; test: TBP/Q79-GFP SH-SY5Y neurite outgrowth assay (also with shRNA knockdown or AICAR); assay type: cell-based, Human; conditions: for increased neurite outgrowth: vs untreated
Protocol: (§1) On day 1, 2 × 10^4 of SH-SY5Y TBP/Q79-GFP cells were seeded on a 24-well plate with retinoic acid (10 μM; Sigma-Aldrich) added to induce neuronal differentiation. On day 2, the cells were treated with LM-031 or licochalcone A (100 nM) for 8 h and TBP/Q79-GFP expression was induced as described. On day 8, cells were stained with Hoechst 33342 (0.1 μg/mL) and the aggregation percentage and neurite outgrowth were assessed by high-content analysis as described. The morphologic differentiation of TBP/Q79-GFP-expressing cells was analyzed by using the Neurite Outgrowth Application Module (Molecular Devices).
(§2) To knockdown the expression of NRF2 and CREB in TBP/Q79-GFP SH-SY5Y cells, lentiviruses with short hairpin RNA (shRNA) targeting NRF2 (TRCN0000007558), CREB (TRCN0000226466), and a negative control scrambled (TRC2.Void) were obtained from the National RNAi Core Facility, Institute of Molecular Biology/Genomic Research Center, Academia Sinica, Taipei, Taiwan. On day 1, cells were plated on 6-well plates (8 × 10^5/well for protein analysis) or 24-well plates (2 × 10^4/well for neurite outgrowth analysis) in the presence of retinoic acid as described. On day 2, the cells were infected with lentivirus (multiplicity of infection: 3) in the presence of polybrene (8 μg/mL; Sigma-Aldrich) to increase infectivity. On day 3, the cells were pretreated with LM-031 or licochalcone A (100 nM) for 8 h; induction of TBP/Q79-GFP expression followed. On day 9, the cells were collected for NRF2 and CREB protein analysis or stained with Hoechst 33342 and analyzed for aggregation and neurite outgrowth as described.
(§3) AICAR (5-aminoimidazole-4-carboxamide 1-β-D-ribofuranoside) (Sigma-Aldrich), an analog of adenosine monophosphate (AMP), was used to stimulate AMP-dependent protein kinase (AMPK) activity. TBP/Q79-GFP SH-SY5Y cells were plated on 6-well or 24-well plates in the presence of retinoic acid as described. On day 2, the cells were pretreated with LM-031 or licochalcone A (100 nM) for 4 h; AICAR (0.1 mM) treatment and TBP/Q79-GFP induction followed. On day 8, the cells were collected for AMPKα and pAMPKα protein analysis or stained with Hoechst 33342 and analyzed for aggregation and neurite outgrowth as described.

[2] = system: TBP/Q79-GFP-expressing SH-SY5Y cells; test: TBP/Q79-GFP SH-SY5Y aggregation assay (also with shRNA knockdown or AICAR); assay type: cell-based, Human; conditions: for aggregation / polyQ aggregation: SH-SY5Y cells; for reduction of aggregation: differentiated TBP/Q79-GFP SH-SY5Y cells, vs untreated
Protocol: as §1, §2, §3

AMPKα, pAMPKα (T172) = test: Western blot of AMPKα and pAMPKα in TBP/Q79-GFP SH-SY5Y cells; assay type: cell-based, Human; conditions: induced SH-SY5Y cells
Protocol: (§4) Total proteins from TBP/Q79-GFP SH-SY5Y cells were obtained using a lysis buffer containing 50 mM Tris-HCl (pH 8.0), 150 mM NaCl, 1 mM EDTA (pH 8.0), 1 mM EGTA (pH 8.0), 0.1% SDS, 0.5% sodium deoxycholate, 1% Triton X-100, and a protease inhibitor cocktail (Sigma-Aldrich). After quantitation using a protein assay kit (Bio-Rad, Hercules, CA, USA), proteins (20 μg) were separated on 10−12% SDS-polyacrylamide gel electrophoresis and blotted onto polyvinylidene difluoride (PVDF) membranes (Sigma-Aldrich) by reverse electrophoresis. After blocking, the membrane was probed with CREB (1 : 1000; Santa Cruz Biotechnology, Santa Cruz, CA, USA), pCREB (S133) (1 : 1000; Santa Cruz Biotechnology), BCL2 (1 : 500; BioVision, Milpitas, CA, USA), GADD45B (1 : 1000; Abcam, Cambridge, MA, USA), BAX (1 : 500; BioVision), NRF2 (1 : 500; Santa Cruz Biotechnology), AMPKα (1 : 1000; Cell Signaling, Danvers, MA, USA), pAMPKα (T172) (1 : 1000; Cell Signaling), GAPDH (1 : 1000) (MDBio Inc., Taipei, Taiwan), or β-actin (1 : 5000; Millipore, Billerica, MA, USA) primary antibody at 4°C overnight. The immune complexes were detected using a horseradish peroxidase-conjugated goat anti-mouse or goat anti-rabbit IgG antibody (1 : 10000; GeneTex, Irvive, CA, USA) and a chemiluminescent substrate (Millipore).
as §3

[3] = MTT cytotoxicity assay in uninduced TBP/Q79-GFP SH-SY5Y cells; assay type: cell-based; conditions: human
Protocol: (§5) Compound cytotoxicity was assessed by colorimetric assay measuring cell metabolic activity. Briefly, TBP/Q79-GFP 293 and SH-SY5Y cells were seeded on a 48-well plate (5 × 10^4/well), grown for 20 h, and treated with licochalcone A or LM compounds (0.1–100 μM). After one day, cell viability was measured based on reduction of 3,(4,5-dimethylthiazol-2-yl)-2,5-diphenyltetrazolium bromide (MTT), and the absorbance of the insoluble purple formazan product at OD 570 nm was read by a FLx800 fluorescence microplate reader (Bio-Tek, Winooski, VT, USA).

[4] = MTT cytotoxicity assay in uninduced TBP/Q79-GFP 293 cells; assay type: cell-based; conditions: human
Protocol: as §5

CREB, pCREB (S133) = test: Western blot of CREB and pCREB in TBP/Q79-GFP SH-SY5Y cells; assay type: cell-based, Human; conditions: 100 nM; for pCREB/CREB (phosphor/total ratio), uninduced = 100%: induced SH-SY5Y cells, untreated induced 85%; for pCREB level, scrambled shRNA uninduced = 100%: scrambled shRNA-infected induced SH-SY5Y cells, untreated 81%
Protocol: as §4, §2

GADD45B = test: Western blot of GADD45B in TBP/Q79-GFP SH-SY5Y cells; assay type: cell-based, Human; conditions: 100 nM, induced SH-SY5Y cells; untreated induced 66–70%
Protocol: as §4

NRF2 = test: Western blot of NRF2 in TBP/Q79-GFP SH-SY5Y cells; assay type: cell-based, Human; conditions: 100 nM; for NRF2 protein level, uninduced = 100%: induced SH-SY5Y cells, untreated induced 72%; for NRF2 level, scrambled shRNA uninduced = 100%: scrambled shRNA-infected induced SH-SY5Y cells, untreated 54%
Protocol: as §4, §2

BAX = test: Western blot of BAX in TBP/Q79-GFP SH-SY5Y cells; assay type: cell-based, Human; conditions: 100 nM, induced SH-SY5Y cells; untreated induced 156%
Protocol: as §4

[5] = system: TBP/Q79-GFP-expressing 293 cells; test: TBP/Q79 293 aggregation assay (high-content analysis of GFP fluorescence); assay type: cell-based, Human
Protocol: GFP fluorescence was evaluated to reflect TBP aggregation in TBP/Q79-GFP-expressing 293 cells. Briefly, cells were plated on 96-well (2 × 10^4/well) dishes, grown for 24 h and treated with different concentrations of licochalcone A or LM compounds (0.1 nM−100 μM) or a positive control suberoylanilide hydroxamic acid (SAHA, 100 nM) (Cayman Chemical, Ann Arbor, MI, USA). After 8 h, doxycycline (10 μg/mL) was added to the cells for 6 days to induce TBP/Q79-GFP expression. In addition, oxaliplatin (5 μM) (Sigma-Aldrich, St Louis, MO, USA) was included for TBP/Q79-GFP aggregate accumulation via blocking cell-cycle progression. On the eighth day, the cells were stained with Hoechst 33342 (0.1 μg/mL; Sigma-Aldrich) for 30 min, and cell images were automatically recorded (excitation/emission wavelengths of 482/536 nm for GFP and 377/447 nm for Hoechst 33342) by using an ImageXpress Micro Confocal High-Content Imaging System (Molecular Devices, Sunnyvale, CA, USA). Aggregation was determined by a Transfluor technology based on GFP fluorescence intensity. To quantify aggregation, the relative aggregation level in untreated cells was set as 100%. Aggregation was measured in wells containing ≥80% viable cells.

[6] = 100 nM compound + AICAR 0.1 mM, SH-SY5Y cells, AICAR alone 17.2 μm
[7] = 100 nM, NRF2 shRNA, SH-SY5Y cells
[8] = 100 nM, differentiated TBP/Q79-GFP SH-SY5Y cells
[9] = 100 nM, differentiated TBP/Q79-GFP SH-SY5Y cells, untreated 21.1 μm
[10] = 100 nM, no AICAR, SH-SY5Y cells, no treatment 19.6 μm
[11] = 100 nM, scrambled shRNA, SH-SY5Y cells, no treatment 21.6 μm
[12] = 100 nM compound + AICAR 0.1 mM, AICAR alone 5.2%
[13] = 100 nM, no AICAR, no treatment 4.6%

With `NC(=O)c1ncn([C@@H]2O[C@H](CO)[C@@H](O)[C@H]2O)c1N` [AICAR, 5-aminoimidazole-4-carboxamide 1-β-D-ribofuranoside] the neurite outgrowth ([1]; AICAR 0.1 mM alone, SH-SY5Y cells, no treatment 19.6 μm) was 17.2 μm, the aggregation ([2]; AICAR 0.1 mM alone, no treatment 4.6%) was 5.2% and the “pAMPKα level, uninduced = 100%” value (AMPKα, pAMPKα (T172); AICAR 0.1 mM alone, without AICAR 134%) was 160%.

For `COc1ccc(C(=O)/C=C/c2cc(Br)ccc2O)cc1` [LM-004], the IC50 at 24 h [3] was 54 µM and the IC50 at 24 h [4] was 45 µM.

For `COc1ccc(O)c(/C=C/C(=O)c2ccccc2)c1` [LM-006], the IC50 at 24 h [3] was 56 µM and the IC50 at 24 h [4] was 47 µM.

`Cc1ccc(/C=C/C(=O)c2c(O)c3ccccc3oc2=O)cc1` [LM-016] gave an IC50 at 24 h [3] greater than 100 µM and an IC50 at 24 h [4] greater than 100 µM.

`COc1cccc(/C=C/C(=O)c2ccc(O)cc2)c1O` [LM-026] showed an IC50 at 24 h [3] of 58 µM and an IC50 at 24 h [4] of 53 µM.

With `O=C(c1ccccc1)c1cc2c(O)cccc2oc1=O` [LM-031, 3-benzoyl-5-hydroxy-2H-chromen-2-one] the “pCREB/CREB (phosphor/total ratio), uninduced = 100%” value (CREB, pCREB (S133)) was 110%, the “pCREB level, scrambled shRNA uninduced = 100%” value (CREB, pCREB (S133)) was 107–112% and the neurite outgrowth [1, 6] was 21.6 μm. The neurite outgrowth [1, 7] was 17.8–18.1 μm, the increased neurite outgrowth [1, 8] was 19−22% and the neurite outgrowth [1, 9] was 25.1–25.6 μm. The neurite outgrowth [1, 10] was 23.0–23.6 μm, the neurite outgrowth [1, 11] was 23.8–24.6 μm and the “GADD45B protein level, uninduced = 100%” value (GADD45B) was 104–105%. For the same molecule, the “NRF2 protein level, uninduced = 100%” value (NRF2) was 96–100%, the “NRF2 level, scrambled shRNA uninduced = 100%” value (NRF2) was 84–93% and the polyQ aggregation [2, 12] was 4.0%. For the same molecule, the aggregation ([2]; 100 nM, NRF2 shRNA) was 5.5%, the reduction of aggregation ([2]; 100 nM) was 18–20% and the polyQ aggregation [2, 13] was 3.6–3.7%. The “BAX protein level, uninduced = 100%” value (BAX) was 103%, the “pAMPKα level, uninduced = 100%” value (AMPKα, pAMPKα (T172); 100 nM compound + AICAR 0.1 mM, AICAR alone 160%) was 96% and the “phosphor/total ratio of AMPKα, uninduced = 100%” value (AMPKα, pAMPKα (T172); 100 nM, untreated induced 170%) was 130%. The “pAMPKα level (phosphor/total ratio of AMPKα), uninduced = 100%” value (AMPKα, pAMPKα (T172); 100 nM, no AICAR, untreated induced 134%) was 110%, the IC50 at 24 h [3] was greater than 100 µM and the IC50 at 24 h [4] was greater than 100 µM. For the same molecule, the “TBP/Q79-GFP aggregation (untreated cells = 100%)” value ([5]; 10 nM–10 μM, significantly better than SAHA 100 nM (82%)) was 74–76%.

In the case of `O=C(CCCCCCC(=O)Nc1ccccc1)NO` [SAHA, suberoylanilide hydroxamic acid, reference compound], the “TBP/Q79-GFP aggregation (untreated cells = 100%)” value ([5]; 100 nM, Dox + oxaliplatin 6 days) is reported as 82%.

In the case of `C=CC(C)(C)c1cc(/C=C/C(=O)c2ccc(O)cc2)c(OC)cc1O` [licochalcone A, reference compound], the “pCREB/CREB (phosphor/total ratio), uninduced = 100%” value (CREB, pCREB (S133)) is reported as 110%, the “pCREB level, scrambled shRNA uninduced = 100%” value (CREB, pCREB (S133)) is reported as 107–112% and the neurite outgrowth [1, 6] is reported as 18.4 μm. The neurite outgrowth [1, 7] was 17.8–18.1 μm, the increased neurite outgrowth [1, 8] was 19−22% and the neurite outgrowth [1, 9] was 25.1–25.6 μm. For the same molecule, the neurite outgrowth [1, 10] was 23.0–23.6 μm, the neurite outgrowth [1, 11] was 23.8–24.6 μm and the “GADD45B protein level, uninduced = 100%” value (GADD45B) was 104–105%. For the same molecule, the “NRF2 protein level, uninduced = 100%” value (NRF2) was 96–100%, the “NRF2 level, scrambled shRNA uninduced = 100%” value (NRF2) was 84–93% and the polyQ aggregation [2, 12] was 4.9%. The aggregation ([2]; 100 nM, NRF2 shRNA) was 5.5%, the reduction of aggregation ([2]; 100 nM) was 18–20% and the polyQ aggregation [2, 13] was 3.6–3.7%. For the same molecule, the “BAX protein level, uninduced = 100%” value (BAX) was 103%, the IC50 at 24 h ([3]; uninduced TBP/Q79-GFP SH-SY5Y cells, MTT, compounds 0.1−100 μM for 24 h, read-out: IC50 cytotoxicity) was 57 µM and the IC50 at 24 h ([4]; uninduced TBP/Q79-GFP 293 cells, MTT, compounds 0.1−100 μM for 24 h, read-out: IC50 cytotoxicity) was 53 µM.
